Columns and labels:
Test in all cases: relative viability (nuclei count vs DMSO), 5 days (fraction); higher = more cells survive
LCLC-103H = system: LCLC-103H
Outline: (§1)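 Relative viability was taken as the ratio of nuclei in treated wells to nuclei in vehicle wells. Lung cancer cell lines in 1536-well plates received compounds by pin tool one day after seeding, either one drug alone or a fixed anchor-drug dose plus five library-drug doses (not always all listed) in √10 steps. Nuclei were counted on 4× images after 5 days of treatment, and values are medians of duplicate plates.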

LK-2 = system: LK-2
Outline: as §1

NCI-H2126 = system: NCI-H2126
Outline: as §1

NCI-H1666 = system: NCI-H1666
Outline: as §1

HCC-827 = system: HCC-827
Outline: as §1

NCI-H1355 = system: NCI-H1355
Outline: as §1

NCI-H1944 = system: NCI-H1944
Outline: as §1

LOU-NH91 = system: LOU-NH91
Outline: as §1

NCI-H441 = system: NCI-H441
Outline: as §1

BEN = system: BEN
Outline: as §1

LXF-289 = system: LXF-289
Outline: as §1

NCI-H1993 = system: NCI-H1993
Outline: as §1

NCI-H661 = system: NCI-H661
Outline: as §1

NCI-H1437 = system: NCI-H1437
Outline: as §1

NCI-H727 = system: NCI-H727
Outline: as §1

NCI-H647 = system: NCI-H647
Outline: as §1

SK-MES-1 = system: SK-MES-1
Outline: as §1

NCI-H2170 = system: NCI-H2170
Outline: as §1

HOP-62 = system: HOP-62
Outline: as §1

ChaGo-K-1 = system: ChaGo-K-1
Outline: as §1

EKVX = system: EKVX
Outline: as §1

RERF-LC-KJ = system: RERF-LC-KJ
Outline: as §1

PC-14 = system: PC-14
Outline: as §1

Cc1csc(=NC2CCCCC2)n1/N=C/c1ccc(O)c(O)c1O [MIM1] + CCNC(=O)c1noc(-c2cc(C(C)C)c(O)cc2O)c1-c1ccc(CN2CCOCC2)cc1 [Luminespib] (partner 0.01 µM)
relative viability (LCLC-103H; first compound 0.2 µM): 1.03 | relative viability (LCLC-103H; first compound 0.6325 µM): 0.908 | relative viability (LCLC-103H; first compound 2 µM): 0.908 | relative viability (LCLC-103H; first compound 6.325 µM): 0.632 | relative viability (LCLC-103H; first compound 20 µM): 0.419 | relative viability (LK-2; first compound 0.2 µM): 0.16 | relative viability (LK-2; first compound 2 µM): 0.169 | relative viability (LK-2; first compound 6.325 µM): 0.195 | relative viability (LK-2; first compound 20 µM): 0.171 | relative viability (NCI-H2126; first compound 0.2 µM): 0.891 | relative viability (NCI-H2126; first compound 0.6325 µM): 0.943 | relative viability (NCI-H2126; first compound 2 µM): 0.957 | relative viability (NCI-H2126; first compound 6.325 µM): 0.88 | relative viability (NCI-H2126; first compound 20 µM): 0.466 | relative viability (NCI-H1666; first compound 0.2 µM): 1.02 | relative viability (NCI-H1666; first compound 0.6325 µM): 1.13 | relative viability (NCI-H1666; first compound 2 µM): 1.02 | relative viability (NCI-H1666; first compound 6.325 µM): 0.884 | relative viability (NCI-H1666; first compound 20 µM): 0.767 | relative viability (HCC-827; first compound 0.2 µM): 0.517 | relative viability (HCC-827; first compound 0.6325 µM): 0.384 | relative viability (HCC-827; first compound 2 µM): 0.698 | relative viability (HCC-827; first compound 6.325 µM): 0.371 | relative viability (HCC-827; first compound 20 µM): 0.184 | relative viability (NCI-H1355; first compound 0.2 µM): 0.698 | relative viability (NCI-H1355; first compound 0.6325 µM): 0.591 | relative viability (NCI-H1355; first compound 2 µM): 0.726 | relative viability (NCI-H1355; first compound 6.325 µM): 0.659 | relative viability (NCI-H1355; first compound 20 µM): 0.391 | relative viability (NCI-H1944; first compound 0.2 µM): 0.632 | relative viability (NCI-H1944; first compound 0.6325 µM): 0.823 | relative viability (NCI-H1944; first compound 2 µM): 0.466 | relative viability (NCI-H1944; first compound 6.325 µM): 0.517 | relative viability (NCI-H1944; first compound 20 µM): 0.568 | relative viability (LOU-NH91; first compound 0.2 µM): 0.338 | relative viability (LOU-NH91; first compound 0.6325 µM): 0.338 | relative viability (LOU-NH91; first compound 2 µM): 0.32 | relative viability (LOU-NH91; first compound 6.325 µM): 0.271 | relative viability (LOU-NH91; first compound 20 µM): 0.268 | relative viability (NCI-H441; first compound 0.2 µM): 0.253 | relative viability (NCI-H441; first compound 2 µM): 0.327 | relative viability (NCI-H441; first compound 6.325 µM): 0.354 | relative viability (NCI-H441; first compound 20 µM): 0.191 | relative viability (BEN; first compound 0.2 µM): 0.249 | relative viability (BEN; first compound 0.6325 µM): 1.24 | relative viability (BEN; first compound 2 µM): 0.36 | relative viability (BEN; first compound 6.325 µM): 0.329 | relative viability (BEN; first compound 20 µM): 0.173 | relative viability (LXF-289; first compound 0.2 µM): 0.708 | relative viability (LXF-289; first compound 0.6325 µM): 0.649 | relative viability (LXF-289; first compound 2 µM): 0.659 | relative viability (LXF-289; first compound 6.325 µM): 0.54 | relative viability (LXF-289; first compound 20 µM): 0.453 | relative viability (NCI-H1993; first compound 0.2 µM): 0.441 | relative viability (NCI-H1993; first compound 0.6325 µM): 0.663 | relative viability (NCI-H1993; first compound 2 µM): 0.652 | relative viability (NCI-H1993; first compound 6.325 µM): 0.633 | relative viability (NCI-H1993; first compound 20 µM): 0.499 | relative viability (NCI-H661; first compound 0.2 µM): 0.92 | relative viability (NCI-H661; first compound 0.6325 µM): 0.928 | relative viability (NCI-H661; first compound 2 µM): 0.86 | relative viability (NCI-H661; first compound 6.325 µM): 0.576 | relative viability (NCI-H661; first compound 20 µM): 0.269 | relative viability (NCI-H1437; first compound 0.2 µM): 1.07 | relative viability (NCI-H1437; first compound 0.6325 µM): 1.1 | relative viability (NCI-H1437; first compound 2 µM): 0.992 | relative viability (NCI-H1437; first compound 6.325 µM): 0.846 | relative viability (NCI-H1437; first compound 20 µM): 0.452 | relative viability (NCI-H727; first compound 0.2 µM): 0.353 | relative viability (NCI-H727; first compound 0.6325 µM): 0.309 | relative viability (NCI-H727; first compound 2 µM): 0.386 | relative viability (NCI-H727; first compound 6.325 µM): 0.386 | relative viability (NCI-H727; first compound 20 µM): 0.392 | relative viability (NCI-H647; first compound 0.2 µM): 0.147 | relative viability (NCI-H647; first compound 0.6325 µM): 0.271 | relative viability (NCI-H647; first compound 2 µM): 0.18 | relative viability (NCI-H647; first compound 6.325 µM): 0.198 | relative viability (NCI-H647; first compound 20 µM): 0.0924 | relative viability (SK-MES-1; first compound 0.2 µM): 0.754 | relative viability (SK-MES-1; first compound 0.6325 µM): 0.828 | relative viability (SK-MES-1; first compound 2 µM): 0.708 | relative viability (SK-MES-1; first compound 6.325 µM): 0.55 | relative viability (SK-MES-1; first compound 20 µM): 0.215 | relative viability (NCI-H2170; first compound 0.2 µM): 0.707 | relative viability (NCI-H2170; first compound 0.6325 µM): 0.497 | relative viability (NCI-H2170; first compound 2 µM): 0.729 | relative viability (NCI-H2170; first compound 6.325 µM): 0.473 | relative viability (NCI-H2170; first compound 20 µM): 0.434 | relative viability (HOP-62; first compound 0.2 µM): 1.01 | relative viability (HOP-62; first compound 0.6325 µM): 0.841 | relative viability (HOP-62; first compound 2 µM): 0.893 | relative viability (HOP-62; first compound 6.325 µM): 0.758 | relative viability (HOP-62; first compound 20 µM): 0.301 | relative viability (ChaGo-K-1; first compound 0.2 µM): 0.559 | relative viability (ChaGo-K-1; first compound 0.6325 µM): 0.735 | relative viability (ChaGo-K-1; first compound 2 µM): 0.473 | relative viability (ChaGo-K-1; first compound 6.325 µM): 0.323 | relative viability (ChaGo-K-1; first compound 20 µM): 0.158 | relative viability (EKVX; first compound 0.2 µM): 0.863 | relative viability (EKVX; first compound 0.6325 µM): 0.766 | relative viability (EKVX; first compound 2 µM): 0.832 | relative viability (EKVX; first compound 6.325 µM): 0.701 | relative viability (EKVX; first compound 20 µM): 0.617 | relative viability (RERF-LC-KJ; first compound 0.2 µM): 1.21 | relative viability (RERF-LC-KJ; first compound 0.6325 µM): 1.26 | relative viability (RERF-LC-KJ; first compound 2 µM): 0.73 | relative viability (RERF-LC-KJ; first compound 6.325 µM): 0.416 | relative viability (RERF-LC-KJ; first compound 20 µM): 0.284 | relative viability (PC-14; first compound 0.2 µM): 0.177 | relative viability (PC-14; first compound 0.6325 µM): 0.137 | relative viability (PC-14; first compound 2 µM): 0.17 | relative viability (PC-14; first compound 6.325 µM): 0.115 | relative viability (PC-14; first compound 20 µM): 0.144
